Assay results reported in patent US20230255953A1, “USE OF ROLUPERIDONE IN PREVENTING RELAPSE IN SCHIZOPHRENIA PATIENTS” (Minerva Neurosciences, Inc., priority 2022, published 2023).

System: patients with negative symptoms of schizophrenia
Assay: Integrated analysis of Studies #1 and #2 (pooled ITT): PANSS-derived scores (NSFS, total, positive and negative subscales), DB, OL and whole study
Type: in vivo, human
Parameters: key to NSFS Score change from Baseline, Median: change from Baseline in PANSS NSFS points; higher score = more severe
Protocol: The primary integrated analysis of the efficacy of Roluperidone compared with placebo for the treatment of negative symptoms of schizophrenia is based on the change from Baseline in the PANSS Marder's negative symptoms factor score (in this document referred to as NSFS) to Week 12. Efficacy is also supported by the analysis of change from Baseline in the PSP Total score and the CGI-S to Week 12.
The PANSS was assessed at the time points described in Table 4.
The PANSS-derived endpoints used in these studies and the integrated analyses are described in Table 5A and a summary of the individual PANSS items used by physicians and clinicians to measure the severity of the symptoms in a schizophrenia patient is provided in Table 5B. The scale is divided into three parts, a positive scale, which provides a “PANSS positive subscore”, a negative scale, which provides a “PANSS negative subscore”, and general psychopathology scale. The sum of these three parts provides a PANSS total score, which ranges from 30 to 210 (where higher scores indicate more severe symptoms). (See Kay, S. R., et al. “The positive and negative syndrome scale (PANSS) for schizophrenia,” Schizophr Bulletin, 13(2), 261-276 (1987) and Gopal, S., et al. “Improvement of Negative Symptoms in Schizophrenia with Paliperidone Palmitate 1-Month and 3-Month Long-Acting Injectables: Results from a Phase 3 Non-Inferiority Study” Neuropsychiatric Disease and Treatment, 681-690, DOI: 10.2147/NDT.5226296, both of which are incorporated by reference.)
The Efficacy data from Study Nos. 1 and 2 were pooled. The majority of patients in the pooled ITT population completed the DB period (502 patients overall, 66.3%), with similar rates in each treatment group (placebo: 69.8%, 32 mg Roluperidone: 65.3%, and 64 mg Roluperidone: 63.8%) (Table 12). The majority (62.7%) of those who completed the DB period entered the OL period. The most common reason for discontinuation during the DB period among patients overall was withdrawal of consent (15.6%), followed by adverse events (7.3%) and lack of efficacy (5.4%) (Table 12). […] Approximately twice as many patients in the Roluperidone groups (32 mg: 8.5%; 64 mg: 9.1%) discontinued due to adverse events compared with patients in the placebo group (4.3%). More patients in the placebo group discontinued due to lack of efficacy (6.7%) than in the Roluperidone groups (32 mg: 4.4%; 64 mg: 5.1%). The low number of patients who discontinued due to lack of efficacy or withdrawal of consent probably reflects a low level of worsening of positive symptoms.
The integrated analysis supporting the efficacy of Roluperidone as a treatment for the negative symptoms of schizophrenia in adults is presented below.

[1] = Placebo in DB to Roluperidone 32 mg in OL, pooled ITT
[2] = Placebo in DB to Roluperidone 64 mg in OL, pooled ITT
[3] = Placebo in DB to Roluperidone in OL, Total, pooled ITT
[4] = Roluperidone Total, Week 2, DB, pooled ITT
[5] = Roluperidone Total, Week 2, pooled ITT

Question: “1H-Isoindol-1-one,2-[ [1-[2-(4-fluorophenyl)-2-oxoethyl]-4-piperidinyl]methyl]-2,3-dihydro-, hydrochloride, hydrate (1:1:2) [Roluperidone]” was tested. Which “Patients with moderate improvement in NSFS (magnitude of change 6-8)” value (64 mg, Week 12, pooled) did it give?
Answer: Its value is 19%.

Question: And the “Patients with moderate or high improvement in NSFS, total” value (64 mg, Week 12, pooled)?
Answer: The value was 32%.

Question: And the “NSFS, LS mean decrease from Baseline compared with placebo” value (64 mg, Week 12, pooled ITT)?
Answer: The value was −3.9.

Question: What about the “PANSS Positive Subscale Score change from Baseline, LS mean (SE)” value (64 mg, Week 12, pooled ITT) of the same substance?
Answer: Its value is −0.2 (0.21).

Question: What about the “PANSS Positive Subscale Score change from Baseline, Mean (SD)” value (64 mg, Week 12, pooled ITT) of the same substance?
Answer: Its value is −0.5 (2.88).

Question: And the “PANSS Positive Subscale Score change from Baseline, Median” value (64 mg, Week 12, pooled ITT)?
Answer: The value was 0.0.

Question: And the “PANSS Positive Subscale Score, Difference (95% CI) in LS mean (vs placebo)” value (64 mg, Week 12, pooled ITT)?
Answer: The value was −0.4.

Question: What about the “PANSS negative subscale score, LS mean change from Baseline compared with placebo” value (64 mg, Week 12, pooled ITT) of the same substance?
Answer: Its value is −1.3.

Question: And the “PANSS positive subscale score, LS mean change from Baseline compared with placebo” value (64 mg, Week 12, pooled ITT)?
Answer: The value was −0.4.

Question: And the “PANSS total score, LS mean change from Baseline compared with placebo” value (64 mg, Week 12, pooled ITT)?
Answer: The value was −2.8.

Question: What about the “Patients with 20% Reduction in NSFS at Week 12, percent” value (64 mg, responder analysis) of the same substance?
Answer: The value was 39%.

Question: And the “Patients with 20% Reduction in PANSS Total Score at Week 12, percent” value (64 mg, responder analysis)?
Answer: Its value is 19%.

Question: And the “Number of Patients with 20% Reduction in PANSS Total Score at Week 12” value (64 mg, responder analysis, n/N)?
Answer: The value was 34/176.

Question: What about the “Number of Patients with 20% reduction in NSFS at Week 12” value (64 mg, responder analysis, n/N) of the same substance?
Answer: The value was 68/176.

Question: And the “NSFS Change from Active BL to Week 24, Mean (SD)” value [1]?
Answer: Its value is −2.1 (2.56).

Question: What about the “NSFS Change from Active BL to Week 24, Median” value [1] of the same substance?
Answer: The value was −2.0.

Question: What about the “NSFS Change from Active BL to Week 52, Mean (SD)” value [1] of the same substance?
Answer: Its value is −4.5 (3.60).

Question: What about the “NSFS Change from Active BL to Week 52, Median” value [1] of the same substance?
Answer: The value was −4.0.

Question: What about the “NSFS Change from Active BL to Week 54, Mean (SD)” value [1] of the same substance?
Answer: The value was −4.7 (3.60).

Question: And the “NSFS Change from Active BL to Week 54, Median” value [1]?
Answer: The value was −4.0.

Question: And the “NSFS Change from Open-label BL to Week 24, Mean (SD)” value [1]?
Answer: Its value is −2.1 (2.56).

Question: And the “NSFS Change from Open-label BL to Week 24, Median” value [1]?
Answer: The value was −2.0.

Question: And the “NSFS Change from Open-label BL to Week 52, Mean (SD)” value [1]?
Answer: Its value is −4.5 (3.60).

Question: And the “NSFS Change from Open-label BL to Week 52, Median” value [1]?
Answer: Its value is −4.0.

Question: And the “NSFS Change from Open-label BL to Week 54, Mean (SD)” value [1]?
Answer: Its value is −4.7 (3.60).

Question: And the “NSFS Change from Open-label BL to Week 54, Median” value [1]?
Answer: The value was −4.0.

Question: What about the “NSFS Change from Study BL to Week 24, Mean (SD)” value [1] of the same substance?
Answer: Its value is −5.3 (3.72).

Question: What about the “NSFS Change from Study BL to Week 24, Median” value [1] of the same substance?
Answer: Its value is −5.0.

Question: And the “NSFS Change from Study BL to Week 52, Mean (SD)” value [1]?
Answer: Its value is −7.9 (3.69).

Question: What about the “NSFS Change from Study BL to Week 52, Median” value [1] of the same substance?
Answer: The value was −8.0.

Question: What about the “NSFS Change from Study BL to Week 54, Mean (SD)” value [1] of the same substance?
Answer: The value was −7.9 (4.29).

Question: And the “NSFS Change from Study BL to Week 54, Median” value [1]?
Answer: The value was −7.0.

Question: And the “NSFS Change from Active BL to Week 24, Mean (SD)” value [2]?
Answer: The value was −1.8 (3.55).

Question: And the “NSFS Change from Active BL to Week 24, Median” value [2]?
Answer: Its value is −2.0.

Question: What about the “NSFS Change from Active BL to Week 52, Mean (SD)” value [2] of the same substance?
Answer: Its value is −4.9 (4.72).

Question: What about the “NSFS Change from Active BL to Week 52, Median” value [2] of the same substance?
Answer: The value was −6.0.

Question: And the “NSFS Change from Active BL to Week 54, Mean (SD)” value [2]?
Answer: Its value is −4.2 (4.78).

Question: And the “NSFS Change from Active BL to Week 54, Median” value [2]?
Answer: Its value is −5.0.

Question: And the “NSFS Change from Open-label BL to Week 24, Mean (SD)” value [2]?
Answer: Its value is −1.8 (3.55).

Question: And the “NSFS Change from Open-label BL to Week 24, Median” value [2]?
Answer: The value was −2.0.

Question: What about the “NSFS Change from Open-label BL to Week 52, Mean (SD)” value [2] of the same substance?
Answer: Its value is −4.9 (4.72).

Question: And the “NSFS Change from Open-label BL to Week 52, Median” value [2]?
Answer: Its value is −6.0.

Question: What about the “NSFS Change from Open-label BL to Week 54, Mean (SD)” value [2] of the same substance?
Answer: The value was −4.2 (4.78).

Question: What about the “NSFS Change from Open-label BL to Week 54, Median” value [2] of the same substance?
Answer: Its value is −5.0.

Question: And the “NSFS Change from Study BL to Week 24, Mean (SD)” value [2]?
Answer: Its value is −4.2 (3.38).

Question: And the “NSFS Change from Study BL to Week 24, Median” value [2]?
Answer: The value was −4.0.

Question: What about the “NSFS Change from Study BL to Week 52, Mean (SD)” value [2] of the same substance?
Answer: Its value is −7.0 (3.76).

Question: What about the “NSFS Change from Study BL to Week 52, Median” value [2] of the same substance?
Answer: Its value is −7.5.

Question: And the “NSFS Change from Study BL to Week 54, Mean (SD)” value [2]?
Answer: The value was −6.6 (4.15).

Question: And the “NSFS Change from Study BL to Week 54, Median” value [2]?
Answer: Its value is −7.0.

Question: What about the “NSFS Change from Active BL to Week 24, Mean (SD)” value [3] of the same substance?
Answer: The value was −1.9 (3.06).

Question: And the “NSFS Change from Active BL to Week 24, Median” value [3]?
Answer: Its value is −2.0.

Question: What about the “NSFS Change from Active BL to Week 52, Mean (SD)” value [3] of the same substance?
Answer: Its value is −4.7 (4.17).

Question: What about the “NSFS Change from Active BL to Week 52, Median” value [3] of the same substance?
Answer: Its value is −5.0.

Question: What about the “NSFS Change from Active BL to Week 54, Mean (SD)” value [3] of the same substance?
Answer: Its value is −4.4 (4.18).

Question: What about the “NSFS Change from Active BL to Week 54, Median” value [3] of the same substance?
Answer: The value was −5.0.

Question: And the “NSFS Change from Open-label BL to Week 24, Mean (SD)” value [3]?
Answer: Its value is −1.9 (3.06).

Question: And the “NSFS Change from Open-label BL to Week 24, Median” value [3]?
Answer: The value was −2.0.

Question: What about the “NSFS Change from Open-label BL to Week 52, Mean (SD)” value [3] of the same substance?
Answer: Its value is −4.7 (4.17).

Question: What about the “NSFS Change from Open-label BL to Week 52, Median” value [3] of the same substance?
Answer: The value was −5.0.

Question: What about the “NSFS Change from Open-label BL to Week 54, Mean (SD)” value [3] of the same substance?
Answer: Its value is −4.4 (4.18).

Question: And the “NSFS Change from Open-label BL to Week 54, Median” value [3]?
Answer: The value was −5.0.

Question: And the “NSFS Change from Study BL to Week 24, Mean (SD)” value [3]?
Answer: Its value is −4.8 (3.60).

Question: And the “NSFS Change from Study BL to Week 24, Median” value [3]?
Answer: Its value is −4.0.

Question: And the “NSFS Change from Study BL to Week 52, Mean (SD)” value [3]?
Answer: Its value is −7.5 (3.72).

Question: And the “NSFS Change from Study BL to Week 52, Median” value [3]?
Answer: The value was −8.0.

Question: And the “NSFS Change from Study BL to Week 54, Mean (SD)” value [3]?
Answer: The value was −7.3 (4.25).

Question: What about the “NSFS Change from Study BL to Week 54, Median” value [3] of the same substance?
Answer: The value was −7.0.

Question: What about the “NSFS Score change from Baseline, Mean (SD)” value [4] of the same substance?
Answer: Its value is −1.3 (2.25).

Question: What about the “NSFS Score change from Baseline, Median” value [4] of the same substance?
Answer: Its value is −1.0.

Question: What about the “PANSS Negative Subscale Score change from Baseline, Mean (SD)” value [4] of the same substance?
Answer: The value was −1.3 (2.20).

Question: What about the “PANSS Negative Subscale Score change from Baseline, Median” value [4] of the same substance?
Answer: Its value is −1.0.

Question: What about the “PANSS Total Score change from Baseline, Mean (SD)” value [4] of the same substance?
Answer: Its value is −2.0 (6.89).

Question: And the “PANSS Total Score change from Baseline, Median” value [4]?
Answer: The value was −2.0.

Question: And the “PANSS Positive Subscale Score change from Baseline, Mean (SD)” value [5]?
Answer: Its value is 0.1 (2.78).

Question: What about the “PANSS Positive Subscale Score change from Baseline, Median” value [5] of the same substance?
Answer: The value was 0.0.

Question: And the “NSFS Score change from Baseline, Mean (SD)” value (Roluperidone Total, Week 4, DB, pooled ITT)?
Answer: The value was −2.4 (2.64).
